Columns and labels:
[1] = Rat PK (pharmacokinetics after iv and po administration); type: in vivo; conditions: male, SD, plasma; for Vd: read-out: Vss; for bioavailability: po 5 vs iv 2 (g/kg [sic]; mg/kg in method), read-out: F (bioavailability)
From the text: Materials used include Propranolol (internal standard), methyl alcohol, ammonium acetate, K2EDTA (potassium ethylenediaminetetraacetate), methane acid, acetonitrile, MTBE (methyl tert-butyl ether), Cremophor EL (polyoxyethylated castor oil), KolliphorHS 15 (polyethylene glycol 12-hydroxystearate), DMSO (dimethylsulfoxide), PEG400 (polyethylene glycol 400) and SD rat (male, 180-220 g, 7-8 weeks old, purchased from Hunan Slack King of Laboratory Animal Co., Ltd.), all of which are commercially available.
Each test compound prepared in above examples was completely dissolved in a mixture of 5% DMSO, 5% KolliphorHS 15 and 90% saline.
(1) The test sample stock solution was prepared by dissolving an accurately weighed test sample in DMSO followed by dilution to the concentration of 1 mg/mL with acetonitrile. The stock solution was stored under the condition of −20° C. for later use.
(2) Internal standard solution was prepared by diluting a certain amount of the Propranolol stock solution in the concentration of 1 mg/mL to 100 ng/mL with water.
Samples treated with liquid-liquid extraction and chromatographic separation were analyzed by triple quadrupole tandem mass spectrometer in multiple reaction monitoring (MRM) mode for quantitative analysis.
Pretreatment of plasma sample was performed according to the following procedures: (1) plasma sample (30 μL) was precisely measured, and internal standard (250 μL) was then added to the plasma sample which was then mixed by vortexing; (2) the sample was extracted once with 1 mL of MTBE and then centrifuged at 13000 rpm for 2 minutes at 4° C.; (3) supernatant (800 μL) was aspirated and dried with 96 holes nitrogen gas blowing; (4) the residue was dissolved with 150 μL of a mixture of methanol and water (v/v=1/1) and then mixed by vortexing; and (5) sampling: sample quantity was 8 μL.
Preparation of standard sample was performed according to the following procedures: (1) a pre-determined amount of the compound stock solution was precisely measured, and then was diluted to standard series of solution with acetonitrile; (2) each of the standard solution (20 μL) prepared above was precisely measured and to each was added 180 μL of blank plasma; (3) each sample was mixed by vortexing to obtain series of standard samples in which the plasma concentration was 3, 5, 10, 30, 100, 300, 1000, 3000, 5000 or 10000 ng/mL; and (4) standard curve was established.
The content of each test compound in rat plasma after administration was determined by LC/MS/MS.
Noncompartmental analysis to calculate pharmacokinetic parameters was performed with WinNonlin 6.1 software.

[2] = target: EGFR T790M (human epidermal growth factor receptor T790M mutation) (Homo sapiens (Human), UniProt P00533, T790M); test: In vitro kinase inhibitory activity, EGFR T790M; type: biochemical
Procedure: (§1) Stop buffer was prepared from 100 mM HEPES, pH 7.5, 0.015% Brij-35, 0.2% Coating Reagent #3, and 50 mM EDTA.
(§2) Kinase reaction was performed according to the following procedures: (1) 2.5× kinase solution was prepared by adding kinase into 1× kinase base buffer; (2) 2.5× peptide solution was prepared by adding FAM-labeled peptide and ATP into 1× kinase base buffer; (3) 2.5× kinase solution (10 μL) was added to each well of the 384-well assay plate containing 5 μL of compound in 10% DMSO and then the assay plate was incubated at room temperature for 10 minutes; (4) 2.5× peptide solution (10 μL) was added to each well of the 384-well assay plate; and (5) stop buffer (25 μL) was added to stop the kinase reaction after incubation at 28° C. for a specified period of time.
(§3) Multifunctional microplate reader (BMG LABTECH, PHER Astar FS) with a 320 nm excitation wavelength was used to read and collected the data of by absorbing light at […], which was converted from the rate of 665 signal/620 signal.
(§4) Conversion data were copied, and then converted to inhibition values with the following formula: percent inhibition=(max−conversion)/(max−min)*100 where “max” stands for the DMSO control value, “conversion” stands for the sample value and “[…]” stands for the no-kinase control value. The data were fitted in XLfit to obtain IC50 values.

[3] = target: EGFR (human epidermal growth factor receptor) (Homo sapiens (Human), UniProt P00533); test: In vitro kinase inhibitory activity, EGFR; type: biochemical
Procedure: as §1, §2, §3, §4

[4] = target: HER2 (human epidermal growth factor receptor 2) (Homo sapiens (Human), UniProt P04626); test: In vitro kinase inhibitory activity, HER-2; type: biochemical
Procedure: as §1
as §2, with “time. […]” for “time.”
as §4

[5] = iv(2 g/kg) [sic], method says 2 mg/kg
[6] = po(5 g/kg) [sic], method says 5 mg/kg

Chain of EGFR T790M (human epidermal growth factor receptor T790M mutation) (P00533 25-1210 T790M): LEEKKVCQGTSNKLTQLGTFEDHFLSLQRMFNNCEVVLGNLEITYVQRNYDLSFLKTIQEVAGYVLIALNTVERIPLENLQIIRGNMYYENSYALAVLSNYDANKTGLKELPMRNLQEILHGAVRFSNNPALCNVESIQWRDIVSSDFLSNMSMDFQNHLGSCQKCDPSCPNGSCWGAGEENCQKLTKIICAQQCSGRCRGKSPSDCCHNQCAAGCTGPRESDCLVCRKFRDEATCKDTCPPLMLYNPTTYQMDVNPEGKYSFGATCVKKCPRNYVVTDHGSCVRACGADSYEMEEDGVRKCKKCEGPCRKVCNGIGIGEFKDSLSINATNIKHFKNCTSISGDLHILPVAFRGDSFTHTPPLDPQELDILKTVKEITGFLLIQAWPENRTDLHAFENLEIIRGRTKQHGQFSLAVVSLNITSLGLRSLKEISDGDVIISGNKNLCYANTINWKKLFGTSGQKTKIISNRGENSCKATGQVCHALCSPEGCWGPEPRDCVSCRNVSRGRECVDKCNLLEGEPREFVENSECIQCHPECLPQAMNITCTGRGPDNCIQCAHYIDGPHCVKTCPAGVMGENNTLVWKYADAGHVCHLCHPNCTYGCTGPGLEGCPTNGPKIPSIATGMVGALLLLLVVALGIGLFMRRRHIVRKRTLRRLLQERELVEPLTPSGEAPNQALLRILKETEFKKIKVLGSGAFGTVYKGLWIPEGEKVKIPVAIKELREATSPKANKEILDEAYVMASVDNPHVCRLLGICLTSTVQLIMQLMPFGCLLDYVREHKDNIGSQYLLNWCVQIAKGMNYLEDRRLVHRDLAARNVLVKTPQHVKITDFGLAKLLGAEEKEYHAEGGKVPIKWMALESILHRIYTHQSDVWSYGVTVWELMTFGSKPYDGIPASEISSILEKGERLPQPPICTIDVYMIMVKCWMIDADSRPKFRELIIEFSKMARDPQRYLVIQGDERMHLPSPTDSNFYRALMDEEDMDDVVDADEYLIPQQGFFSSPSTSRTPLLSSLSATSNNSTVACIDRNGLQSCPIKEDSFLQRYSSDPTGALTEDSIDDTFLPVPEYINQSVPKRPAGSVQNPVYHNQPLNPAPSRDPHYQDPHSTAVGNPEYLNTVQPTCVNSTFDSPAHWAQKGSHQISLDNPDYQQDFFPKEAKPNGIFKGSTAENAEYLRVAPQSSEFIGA
Chain of EGFR (human epidermal growth factor receptor) (P00533 25-1210): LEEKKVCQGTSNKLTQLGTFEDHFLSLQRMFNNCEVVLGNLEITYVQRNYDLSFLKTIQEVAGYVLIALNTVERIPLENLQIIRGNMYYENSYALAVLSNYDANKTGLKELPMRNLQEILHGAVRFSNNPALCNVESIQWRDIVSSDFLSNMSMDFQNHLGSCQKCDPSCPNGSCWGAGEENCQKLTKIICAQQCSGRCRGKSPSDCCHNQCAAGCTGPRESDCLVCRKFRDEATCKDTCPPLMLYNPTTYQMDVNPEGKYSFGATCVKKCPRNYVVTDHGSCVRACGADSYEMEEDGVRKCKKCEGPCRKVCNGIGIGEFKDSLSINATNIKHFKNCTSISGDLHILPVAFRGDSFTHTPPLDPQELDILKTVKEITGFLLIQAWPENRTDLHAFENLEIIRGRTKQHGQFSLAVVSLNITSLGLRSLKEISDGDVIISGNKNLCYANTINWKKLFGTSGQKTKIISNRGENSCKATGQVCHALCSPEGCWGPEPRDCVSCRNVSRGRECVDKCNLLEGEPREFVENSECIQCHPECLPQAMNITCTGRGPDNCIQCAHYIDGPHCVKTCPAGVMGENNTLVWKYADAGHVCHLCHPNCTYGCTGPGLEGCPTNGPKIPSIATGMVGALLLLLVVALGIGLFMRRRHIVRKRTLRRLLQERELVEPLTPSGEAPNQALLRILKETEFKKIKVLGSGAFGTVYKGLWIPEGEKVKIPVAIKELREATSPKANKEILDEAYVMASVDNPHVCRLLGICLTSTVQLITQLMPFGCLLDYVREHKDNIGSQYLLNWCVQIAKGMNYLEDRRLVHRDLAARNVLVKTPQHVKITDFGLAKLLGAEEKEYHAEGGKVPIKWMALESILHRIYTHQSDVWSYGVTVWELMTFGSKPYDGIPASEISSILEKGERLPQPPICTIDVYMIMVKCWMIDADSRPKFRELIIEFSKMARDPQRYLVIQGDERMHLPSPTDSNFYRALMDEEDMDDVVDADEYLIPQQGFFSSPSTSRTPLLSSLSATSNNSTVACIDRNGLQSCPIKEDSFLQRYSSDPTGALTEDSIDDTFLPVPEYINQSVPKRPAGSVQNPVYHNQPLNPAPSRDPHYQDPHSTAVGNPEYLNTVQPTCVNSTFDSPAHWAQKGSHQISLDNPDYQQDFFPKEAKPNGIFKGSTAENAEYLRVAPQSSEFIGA
Chain of HER2 (human epidermal growth factor receptor 2) (P04626 23-1255): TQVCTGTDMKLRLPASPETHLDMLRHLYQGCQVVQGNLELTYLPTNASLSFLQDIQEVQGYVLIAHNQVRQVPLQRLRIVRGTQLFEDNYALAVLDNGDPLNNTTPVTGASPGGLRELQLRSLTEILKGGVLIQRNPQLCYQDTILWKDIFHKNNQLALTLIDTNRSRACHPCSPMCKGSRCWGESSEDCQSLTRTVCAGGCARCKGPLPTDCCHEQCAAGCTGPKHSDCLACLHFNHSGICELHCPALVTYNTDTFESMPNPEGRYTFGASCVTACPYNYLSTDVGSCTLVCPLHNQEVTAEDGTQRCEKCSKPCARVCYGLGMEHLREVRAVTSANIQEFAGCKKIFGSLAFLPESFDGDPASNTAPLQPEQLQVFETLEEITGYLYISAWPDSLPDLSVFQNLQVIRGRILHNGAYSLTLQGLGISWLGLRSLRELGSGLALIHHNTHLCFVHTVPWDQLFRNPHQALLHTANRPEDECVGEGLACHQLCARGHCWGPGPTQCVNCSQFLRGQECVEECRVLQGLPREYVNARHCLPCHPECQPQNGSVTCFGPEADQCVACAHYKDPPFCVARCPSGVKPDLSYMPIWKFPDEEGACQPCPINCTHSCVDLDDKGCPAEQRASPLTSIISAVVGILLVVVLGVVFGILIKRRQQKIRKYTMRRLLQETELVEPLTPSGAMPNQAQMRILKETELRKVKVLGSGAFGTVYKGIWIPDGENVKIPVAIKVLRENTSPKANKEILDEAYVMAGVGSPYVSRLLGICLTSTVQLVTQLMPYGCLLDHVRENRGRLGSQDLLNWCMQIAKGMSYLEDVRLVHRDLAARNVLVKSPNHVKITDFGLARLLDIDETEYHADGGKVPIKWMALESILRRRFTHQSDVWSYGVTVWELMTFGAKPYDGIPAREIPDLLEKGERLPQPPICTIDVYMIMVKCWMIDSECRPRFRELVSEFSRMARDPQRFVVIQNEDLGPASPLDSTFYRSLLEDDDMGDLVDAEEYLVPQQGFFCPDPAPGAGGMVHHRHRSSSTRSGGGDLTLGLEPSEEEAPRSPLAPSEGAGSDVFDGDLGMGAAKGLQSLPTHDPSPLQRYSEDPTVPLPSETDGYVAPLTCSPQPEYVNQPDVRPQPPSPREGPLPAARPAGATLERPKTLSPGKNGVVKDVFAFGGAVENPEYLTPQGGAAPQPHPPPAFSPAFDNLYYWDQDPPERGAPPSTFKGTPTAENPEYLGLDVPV

With `COc1cc2ncnc(Nc3ccc(Cl)c(Cl)c3F)c2cc1NC(=O)/C=C/CN1C[C@@H]2OCCO[C@@H]2C1` [Example 31, (E)-N-(4-((3,4-Dichloro-2-fluorophenyl)amino)-7-methoxyquinazolin-6-yl)-4-((4aR,7aS)-tetrahydro-2H-[1,4]dioxino[2,3-c]pyrrol-6(3H)-yl)but-2-enamide] the AUC(0-t) [1, 5] was 2990 ng·h/mL, the Cmax [1, 5] was 1210 ng/mL and the half-life [1, 5] was 3.66 h. The Vd [1, 5] was 2.58 L/kg, the bioavailability [1] was 93.5% and the AUC(0-t) [1, 6] was 6980 ng·h/mL. For the same molecule, the Cmax [1, 6] was 794 ng/mL, the half-life [1, 6] was 3.16 h and the IC50 [2] was 6.4 nM. The IC50 [3] was 2.1 nM and the IC50 [4] was 9.1 nM.

With `O=C(/C=C/CN1C[C@@H]2OCCO[C@@H]2C1)Nc1ccc2ncnc(Nc3ccc4c(cnn4Cc4cccc(F)c4)c3)c2c1` [Example 26, (E)-N-(4-((1-(3-Fluorobenzyl)-1H-indazol-5-yl)amino)quinazolin-6-yl)-4-((4aR,7aS)-tetrahydro-2H-[1,4]dioxin[2,3-c]pyrrol-6(3H)-yl)but-2-enamide] the IC50 [2] was 89.3 nM, the IC50 [3] was 14 nM and the IC50 [4] was 1.6 nM.

For `COCCOc1cc2ncnc(Nc3ccc(F)c(Cl)c3)c2cc1NC(=O)/C=C/CN1C[C@@H]2OCCO[C@@H]2C1` [Example 6, (E)-N-(4-((3-Chloro-4-fluorophenyl)amino)-7-(2-methoxyethoxy)quinazolin-6-yl)-4-((4aR,7aS)-tetrahydro-2H-[1,4]dioxino[2,3-c]pyrrol-6(3H)-yl)but-2-enamide], the IC50 [2] was 8.7 nM, the IC50 [3] was 1.8 nM and the IC50 [4] was 10.4 nM.

`O=C(/C=C/CN1C[C@@H]2OCCO[C@@H]2C1)Nc1cc2c(Nc3ccc(F)c(Cl)c3)ncnc2cc1O[C@H]1CCOC1` [Example 5, (E)-N-(4-((3-Chloro-4-fluorophenyl)amino)-7-(((S)-tetrahydrofuran-3-yl)oxy)quinazolin-6-yl)-4-((4aR,7aS)-tetrahydro-2H-[1,4]dioxino[2,3-c]pyrrol-6(3H)-yl)but-2-enamide] showed an IC50 [2] of 6.8 nM, an IC50 [3] of 3.6 nM and an IC50 [4] of 11.7 nM.

Work on `O=C(/C=C/CN1C[C@@H]2OCCO[C@@H]2C1)Nc1ccc2ncnc(Nc3ccc(OCc4ccccn4)c(Cl)c3)c2c1` [Example 22, (E)-N-(4-((3-Chloro-4-(pyridin-2-ylmethoxy)phenyl)amino)quinazolin-6-yl)-4-((4aR,7aS)-tetrahydro-2H-[1,4]dioxino[2,3-c]pyrrol-6(3H)-yl)but-2-enamide] yielded an IC50 [2] of 47.3 nM, an IC50 [3] of 22 nM and an IC50 [4] of 1.9 nM.

In the case of `CCOc1cc2ncnc(Nc3ccc4c(cnn4Cc4cccc(F)c4)c3)c2cc1NC(=O)/C=C/CN1C[C@@H]2OCCO[C@@H]2C1` [Example 28, (E)-N-(7-Ethoxy-4-((1-(3-fluorobenzyl)-1H-indazol-5-yl)amino)quinazolin-6-yl)-4-((4aR,7aS)-tetrahydro-2H-[1,4]dioxino[2,3-c]pyrrol-6(3H)-yl)but-2-enamide], the AUC(0-t) [1, 5] is reported as 692 ng·h/mL, the Cmax [1, 5] is reported as 450 ng/mL and the half-life [1, 5] is reported as 1.99 h. It also gave a Vd [1, 5] of 6.66 L/kg, a bioavailability [1] of 41.5% and an AUC(0-t) [1, 6] of 721 ng·h/mL. It also gave a Cmax [1, 6] of 147 ng/mL, a half-life [1, 6] of 1.41 h and an IC50 [2] of 14.5 nM. It also gave an IC50 [3] of 40.1 nM and an IC50 [4] of 1.6 nM.

In the case of `CCOc1cc2ncnc(Nc3ccc(F)c(Cl)c3)c2cc1NC(=O)/C=C/CN1C[C@@H]2OCCO[C@@H]2C1` [Example 3, (E)-N-(4-((3-Chloro-4-fluorophenyl)amino)-7-ethoxyquinazolin-6-yl)-4-((4aR,7aS)-tetrahydro-2H-[1,4]dioxin[2,3-c]pyrrol-6(3H)-yl)but-2-enamide], the IC50 [2] is reported as 6.2 nM, the IC50 [3] is reported as 6.4 nM and the IC50 [4] is reported as 8.1 nM.

`COc1cc2ncnc(Nc3ccc(OCc4cccc(F)c4)c(Cl)c3)c2cc1NC(=O)/C=C/CN1C[C@@H]2OCCO[C@@H]2C1` [Example 29, (E)-N-(4-((3-Chloro-4-((3-fluorobenzyl)oxy)phenyl)amino)-7-methoxyquinazolin-6-yl)-4-((4aR,7aS)-tetrahydro-2H-[1,4]dioxino[2,3-c]pyrrol-6(3H)-yl)but-2-enamide] showed an IC50 [4] of 3.7 nM.

For `CCOc1cc2ncnc(Nc3ccc(OCc4cccc(F)c4)c(Cl)c3)c2cc1NC(=O)/C=C/CN1C[C@@H]2OCCO[C@@H]2C1` [Example 30, (E)-N-(4-((3-Chloro-4-((3-fluorobenzyl)oxy)phenyl)amino)-7-ethoxyquinazolin-6-yl)-4-((4aR,7aS)-tetrahydro-2H-[1,4]dioxino[2,3-c]pyrrol-6(3H)-yl)but-2-enamide], the IC50 [2] was 133 nM, the IC50 [3] was 31.9 nM and the IC50 [4] was 6.6 nM.

For `COc1cc2ncnc(Nc3ccc(F)c(Cl)c3F)c2cc1NC(=O)/C=C/CN1C[C@@H]2OCCO[C@@H]2C1` [Example 35, (E)-N-(4-((3-Chloro-2,4-difluorophenyl)amino)-7-methoxyquinazolin-6-yl)-4-((4aR,7aS)-tetrahydro-2H-[1,4]dioxino[2,3-c]pyrrol-6(3H)-yl)but-2-enamide], the IC50 [2] was 20 nM, the IC50 [3] was 0.9 nM and the IC50 [4] was 17.8 nM.

Work on `[2H]C([2H])([2H])Oc1cc2ncnc(Nc3ccc(F)c(Cl)c3)c2cc1NC(=O)/C=C/CN1C[C@@H]2OCCO[C@@H]2C1` [Example 20, (E)-N-(4-((3-Chloro-4-fluorophenyl)amino)-7-(methoxy-D3)quinazolin-6-yl)-4-((4aR,7aS)-tetrahydro 2H-[1,4]dioxino[2,3-c]pyrrol-6(3H)-yl)but-2-enamide] yielded an AUC(0-t) [1, 5] of 1450 ng·h/mL, a Cmax [1, 5] of 868 ng/mL and a half-life [1, 5] of 2.22 h. For the same molecule, the Vd [1, 5] was 3.71 L/kg, the AUC(0-t) [1, 6] was 3190 ng·h/mL and the Cmax [1, 6] was 336 ng/mL. The half-life [1, 6] was 3.6 h.

Work on `O=C(/C=C/CN1C[C@@H]2OCCO[C@@H]2C1)Nc1cc2c(Nc3ccc(F)c(Cl)c3)ncnc2cc1OCC(F)(F)F` [Example 7, (E)-N-(4-((3-Chloro-4-fluorophenyl)amino)-7-(2,2,2-trifluoroethoxy)quinazolin-6-yl)-4-((4aR,7aS)-tetrahydro-2H-[1,4]dioxino[2,3-c]pyrrol-6(3H)-yl)but-2-enamide] yielded an IC50 [2] of 22.6 nM, an IC50 [3] of 15.4 nM and an IC50 [4] of 44 nM.

Work on `COCCOc1cc2ncnc(Nc3ccc(Cl)c(Cl)c3F)c2cc1NC(=O)/C=C/CN1C[C@@H]2OCCO[C@@H]2C1` [Example 33, (E)-N-(4-((3,4-Dichloro-2-fluorophenyl)amino)-7-(2-methoxyethoxy)quinazolin-6-yl)-4-((4aR,7aS)-tetrahydro-2H-[1,4]dioxino[2,3-c]pyrrol-6(3H)-yl)but-2-enamide] yielded an AUC(0-t) [1, 5] of 1250 ng·h/mL, a Cmax [1, 5] of 890 ng/mL and a half-life [1, 5] of 1.29 h. It also gave a Vd [1, 5] of 2.77 L/kg, a bioavailability [1] of 44.5% and an AUC(0-t) [1, 6] of 1370 ng·h/mL. For the same molecule, the Cmax [1, 6] was 346 ng/mL, the half-life [1, 6] was 1.27 h and the IC50 [4] was 9.6 nM.

Molecule `O=C(/C=C/CN1C[C@@H]2OCCO[C@@H]2C1)Nc1ccc2ncnc(Nc3ccc(OCc4cccc(F)c4)c(Cl)c3)c2c1` [Example 21, (E)-N-(4-((3-Chloro-4-((3-fluorobenzyl)oxy)phenyl)amino)quinazolin-6-yl)-4-((4aR,7aS)-tetrahydro-2H-[1,4]dioxino[2,3-c]pyrrol-6(3H)-yl)but-2-enamide] has an IC50 [2] of 317 nM, an IC50 [3] of 15 nM and an IC50 [4] of 3.5 nM.

— patent US9556191B2, “Aminoquinazoline derivatives and their salts and methods of use thereof” (SUNSHINE LAKE PHARMA CO., LTD, priority 2013, dated 2017)
